Experimental data: patent publication US20260325504A1, “Genetically Engineered Human Pituitary Corticotroph Tumor Organoids Exhibit Divergent Responses to Selective Glucocorticoid Receptor Modulators” (Corcept Therapeutics Incorporated, priority 2022, published 2026)
Entries after “also recorded” stand apart in the source; their conditions may differ.

Legend:
iPSC^ctrl organoids = test: EdU uptake (proliferation) in iPSCctrl organoids; assay type: cell-based, human; details: compound alone, 500 nM, 48 h
Protocol: iPSCs were stained for pituitary specific hormones including luteinizing hormone (LH), follicle-stimulating hormone (FSH), growth hormone (GH), prolactin (PRL), ACTH, cytokeratin 8/18 (CAM5.2), pituitary transcription factor PIT-1 and neuroendocrine marker Synaptophysin (Table 5). Cultures were immunostained for proliferation marker EdU (Click-IT EdU Alexa Fluor 555 Imaging Kit, Thermo Fisher Scientific C10338). Antibody dilutions were determined based on manufacturer guidelines and antibody titration (Table 5). Staining was conducted according to previously published protocols. Briefly, organoids and iPSCs grown in 8-well glass bottom chamber slides were fixed using 3.7% formaldehyde, washed with DPBS, permeabilized with 0.5% Triton X-100 (SIGMA X-100, PBS-T, 20 min at room temperature), washed with 0.01% PBS-T, and blocked with 2% donkey serum (Jackson Immuno Research 017-000-121) for 1 hour at room temperature. After blocking, primary antibodies were added and incubated overnight at 4° C. Slides were washed with 0.01% PBS-T and incubated with secondary antibodies (Table 5) with Hoechst (Thermo Fisher Scientific H1399) for 1 hour at room temperature. Organoids were washed and stored in PBS at 4° C. until microscopic analysis. High content confocal microscopy was performed using the Nikon Ti2-E Inverted Microscope (with a Crest X-Light V2 L-FOV Spinning Disk Confocal) at the University of Arizona Cancer Center, or a ZEISS LSM880 34 channel Laser Scanning Confocal Microscope at University of Arizona Marley Imaging Core. Fluorescence intensity was quantified as the percentage of marker-positive cells versus total cells, using Nikon Elements Software (Version 5.21.05). Proliferation for each iPSC line was quantified as the percentage of EdU-positive cells versus total cells.
Sonic Hedgehog (SHH) was withdrawn from the organoid growth media 16 hours prior to treatment. The experimental treatment groups included: vehicle (Veh), mifepristone (500 nM, Selleckchem S2606), GANT61 (5 μM, Stemcell Technologies 73692), ketoconazole (Keto, 10 μM, Selleckchem S1353), pasireotide (Pas, 100 nM, Target Mol TP2207-SB001), octreotide (Oct, 100 nM, Selleckchem P1017), mifepristone plus GANT61, mifepristone plus Keto, mifepristone plus Pas, relacorilant (500 nM, Corcept Therapeutics CORT125134), relacorilant plus Pas, relacorilant plus Oct, or dexamethasone (Dexa, 100 nM, SIGMA S4902). In the combination treatments, cultures were pretreated with the GANT61, Keto, Pas or Oct for 2 hours prior to treatment with mifepristone or Rela. […] The IC50 values used for each hPITO line for each drug were determined based on dose responses (FIG. 12). […]

iPSC^USP48MV organoids = test: Nuclear morphometric analysis (nuclear irregularity index), iPSCUSP48MV organoids; assay type: cell-based, human; details: 500 nM, 48 h
Protocol: Nuclear Morphometric Analysis (NMA) using treated organoids was performed based on a published protocol that measures cell viability based on the changes in nuclear morphology of the cells using nuclear stain Hoechst or DAPI [31]. Images of organoid nuclei were analyzed using the ImageJ Nuclear Irregularity Index (NII) plugin for key parameters that included cell area, radius ratio, area box, aspect, and roundness. Using the published spreadsheet template, the NII of each cell was calculated with the following formula: NII=Aspect−Area Box+Radius Ratio+Roundness. The area vs NII of vehicle-treated cells were plotted as a scatter plot using the template and considered as the normal cell nuclei. […] The percentage of cells in each NII classification category were calculated and plotted as a histogram using GraphPad Prism.
(§1) Sonic Hedgehog (SHH) was withdrawn from the organoid growth media 16 hours prior to treatment. […] The IC50 values used for each hPITO line for each drug were determined based on dose responses (FIG. 12). […]

SSTR2 = test: Spectral flow cytometry, SSTR2 positive cells, hPITOs; assay type: cell-based, human; details: hPITO, 48 h, FIGS. 9E, F
Text: (§2) 1.3 Generation and Culture of Human PitNET Tissue Organoids (hPITOs)
(§3) Patients undergoing planned transsphenoidal surgery for PitNETs were identified in the outpatient neuroendocrinology and neurosurgery clinics and collected by the St. Joseph's Hospital and Barrow Neurological Institute Biobank under the collection protocol PHXA-05TS038, and outcomes data protocol PHXA-0004-72-29 with approval of the Institutional Review Board (IRB) and patient consent. De-identified samples were shipped in collection and transport media (Table 3) to the Zavros laboratory (University of Arizona) for processing within 24 hours of collection. Resected PitNET tissues were washed with Dulbeccos Phosphate Buffered Saline (DPBS) supplemented with 1× Penicillin/Streptomycin, 1× Kanamycin and 1× Amphotericin/Gentamycin, minced into smaller pieces, and incubated with digestion buffer (Dulbecco's Modified Eagle Medium/Nutrient Mixture F-12 (DMEM/F12) supplemented with 0.4% Collagenase 2, 0.1% Hyaluronic Acid, 0.03% Trypsin). The tissue was incubated with Accutase (Thermo Fisher Scientific) for a further 5 minutes, and the cells were pelleted and washed with DPBS supplemented with antibiotics. Dissociated cells were then seeded as Matrigel™ domes in culture dishes and overlaid with growth media (Table 4). Media was replaced every 3 days and organoids were harvested for downstream experiments or passaged after 15 days of culture (FIG. 1B).
as §1

hPITO = test: Spectral flow cytometry, Zombie positive cells (cell death), hPITOs; assay type: cell-based, human; details: 48 h, FIGS. 9K, L
Text: as §2, §3
Sonic Hedgehog (SHH) was withdrawn from the organoid growth media 16 hours prior to treatment. The experimental treatment groups included: vehicle (Veh), mifepristone (500 nM, Selleckchem S2606), GANT61 (5 μM, Stemcell Technologies 73692), ketoconazole (Keto, 10 μM, Selleckchem S1353), pasireotide (Pas, 100 nM, Target Mol TP2207-SB001), octreotide (Oct, 100 nM, Selleckchem P1017), mifepristone plus GANT61, mifepristone plus Keto, mifepristone plus Pas, relacorilant (500 nM, Corcept Therapeutics CORT125134), relacorilant plus Pas, relacorilant plus Oct, or dexamethasone (Dexa, 100 nM, SIGMA S4902). In the combination treatments, cultures were pretreated with the GANT61, Keto, Pas or Oct for 2 hours prior to treatment with mifepristone or Rela. PitNET tissue derived organoids hPITO36, hPITO37, hPITO38, hPITO39, and hPITO40 were treated with the following experimental conditions: Vehicle (1), pasireotide (2), relacorilant (3), relacorilant & pasireotide (4), mifepristone (5), mifepristone & pasireotide (6). The IC50 values used for each hPITO line for each drug were determined based on dose responses (FIG. 12). All organoid cultures were treated for 48 hours prior to analysis.
The multicolor flow cytometry antibody panel was designed using the Cytek® Full Spectrum Viewer online tool to calculate the similarity index. Organoids were harvested in cold Serum-Free Defined Medium media and incubated with Zombie (BioLegend 423107, 1:100) for 15 minutes in the dark at room temperature, followed by incubation with fluorochrome-conjugated/unconjugated primary surface or cytoplasmic antibodies (Table 6) at 4° C. for 30 minutes. Cells were then washed with Cell Staining Buffer (BioLegend 420-201) and incubated at 4° C. for 30 minutes with secondary antibodies (Table 6). Cells were fixed using Cytofix/Cytoperm™ Fixation/Permeabilization Solution (BD Biosciences 554714) and washed with Fixation/Permeabilization wash buffer according to the recommended protocol. […]

progesterone receptor = details: cited from earlier work

Row | Compound | proliferation (EdU uptake) (iPSC^ctrl organoids) | apoptotic cells by nuclear irregularity index (NII) (iPSC^USP48MV organoids) | magnitude of SSTR2 induction, mifepristone vs relacorilant (SSTR2) | percentage of SSTR2 positive cells (SSTR2) | cell death (Zombie positive cells) (hPITO) | binding to the progesterone receptor (progesterone receptor) | cell death in epithelial/mesenchymal hybrid cell population (CK20, vimentin, CXCR4) (hPITO) | cell death in populations expressing stem cell markers SOX2, CXCR4 and nestin (hPITO) | cell death (Zombie positive cells) (hPITO; listed as Relacorilant)
1 | CC#C[C@]1(O)CC[C@H]2[C@@H]3CCC4=CC(=O)CCC4=C3[C@@H](c3ccc(N(C)C)cc3)C[C@@]21C [mifepristone, 11β-(4-dimethylaminophenyl)-17ß-hydroxy-17α-(1-propynyl)-estra-4,9-dien-3-one] | significant increase in cell proliferation | not observed; also recorded: induces apoptosis in neither the tumor organoid iPSC^USP48MV nor the control organoid iPSC^ctrl | significantly greater than that of relacorilant | significant increase | not observed | binding to the progesterone receptor |  |  | 
2 | Cn1cc(S(=O)(=O)N2CCC3=Cc4c(cnn4-c4ccc(F)cc4)C[C@]3(C(=O)c3cc(C(F)(F)F)ccn3)C2)cn1 [relacorilant, (R)-(1-(4-fluorophenyl)-6-((1-methyl-1H-pyrazol-4-yl)sulfonyl)-4,4a,5,6,7,8-hexahydro-1H-pyrazolo[3,4-g]isoquinolin-4a-yl) (4-(trifluoromethyl)pyridin-2-yl) methanone] | did not induce organoid proliferation | significant expression pattern of nuclear morphology consistent with increased apoptotic cells; also recorded: consistent with increased apoptosis cells |  | significant increase | significant increase in cell death | no detectable binding | significant cell death | significant cell death | Induces Tumor Cell Death; also recorded: significant increase in Zombie positive cells
